For eight compounds, Ki, Uncoupling and Relative glucuronidation results are on record in US8318785B2, “Pharmaceutical compounds” (Orion Corporation, priority 2005, dated 2012).

Data set [1] addresses T1, recombinant human soluble form of COMT (hS-COMT) (Homo sapiens, UniProt P21964).
T1 sequence (P21964 1-221 isoform P21964-2): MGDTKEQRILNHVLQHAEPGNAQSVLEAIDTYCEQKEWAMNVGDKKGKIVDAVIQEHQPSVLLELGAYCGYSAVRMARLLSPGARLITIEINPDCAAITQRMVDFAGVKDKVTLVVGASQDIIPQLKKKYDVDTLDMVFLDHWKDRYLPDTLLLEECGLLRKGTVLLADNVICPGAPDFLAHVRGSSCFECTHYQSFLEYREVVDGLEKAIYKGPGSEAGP
The data set is described as follows: Determination of COMT inhibiting activity in vitro. It counts as biochemical. As to conditions: tight binding inhibition constant, 25 μM SAM, substrate esculetin 10 μM, pH 7.4, 37° C.

Data set [2] deals with isolated rat liver mitochondria. The data set is described as follows: Determination of uncoupling of oxidative phosphorylation in vitro. As to conditions: threshold value of uncoupling (sample/Control slope ratio exceeding 2); oxygen consumption of rat liver mitochondria; tested 1-50 μM.
Data set [3] in a line: Determination of metabolic stability in vitro (glucuronidation). In kind it is in vitro ADME. As to conditions: entacapone = 1.00; human liver microsomes 0.4 mg/ml, UDPGA 5 mM, test substance 100 μM, 60 min at 37° C.; glucuronide HPLC area relative to entacapone. In general terms: Liver microsomes are a subcellular fraction often used to study metabolism.

As usually defined, the Ki is a dissociation constant, usually derived from enzyme kinetics or from competition with a known ligand. In the case of `O=C(O)c1ccc(NC(=O)c2sc3c([N+](=O)[O-])c(O)c(O)cc3c2Cl)cc1` [Compound of example 13, 4-[(3-Chloro-5,6-dihydroxy-7-nitro-benzo[b]thiophene-2-carbonyl)-amino]-benzoic acid], the Ki in data set [1] was determined as 0.2 nM.

For `O=[N+]([O-])c1ccc(O)c([N+](=O)[O-])c1` [DNP, dinitrophenol], in data set [2], the Uncoupling turned out to be 10 µM. `O=C(c1cc2cc(O)c(O)c([N+](=O)[O-])c2s1)N1CCOCC1` [Compound of example 16, (5,6-Dihydroxy-7-nitro-benzo[b]thiophen-2-yl)-morpholin-4-yl-methanone] had a Relative glucuronidation in data set [3] of under 0.01. For the same compound, the Ki in data set [1] came to 0.9 nM. Regarding `O=C(O)c1cccc(NC(=O)c2sc3c([N+](=O)[O-])c(O)c(O)cc3c2Cl)c1` [Compound of example 12, 3-[(3-Chloro-5,6-dihydroxy-7-nitro-benzo[b]thiophene-2-carbonyl)-amino]-benzoic acid], the Relative glucuronidation in data set [3] stood at 0.03. For the same compound, in data set [1], the Ki stood at 0.6 nM. Take `O=[N+]([O-])c1c(O)c(O)cc2c(Cl)csc12` [Compound of example 7, 3-Chloro-5,6-dihydroxy-7-nitro-benzo[b]thiophene]: the Ki in data set [1] worked out at 1.5 nM. For the compound `O=C(c1sc2c([N+](=O)[O-])c(O)c(O)cc2c1Cl)N1CCOCC1` [Compound of example 8, (3-Chloro-5,6-dihydroxy-7-nitro-benzo[b]thiophen-2-yl)-morpholin-4-yl-methanone], the Ki in data set [1] amounted to 0.6 nM. In turn, `O=C1OCc2c1cc(O)c(O)c2[N+](=O)[O-]` [Compound of example 23, 5,6-Dihydroxy-4-nitro-3H-isobenzofuran-1-one] had a Relative glucuronidation in data set [3] of 0.26. For the same compound, the inhibitory constant (Ki) in data set [1] came out at 2 nM. In the case of `CCOC(=O)c1sc2c([N+](=O)[O-])c(O)c(O)cc2c1Cl` [Compound of example 5, 3-Chloro-5,6-dihydroxy-7-nitro-benzo[b]thiophene-2-carboxylic acid ethyl ester], the inhibition constant Ki in data set [1] was 1.5 nM.
